# In ChEMBL document CHEMBL1201862, “PubChem BioAssay data set” (2004):
#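 Exposure lasted 48 hours, with cells grown in 96-well plates and compounds tested at five concentrations. GI50 is the concentration that inhibits growth by half.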 Active and inactive are the calls of the source. Cut-off read from the data, not from the text of the source: active = GI50 up to about 1.1 µM and inactive = higher.
# Tests used:
# Test in all cases: NCI anticancer screen, dose series, 48 h
# OVCAR-8 = system: OVCAR-8
# OVCAR-4 = system: OVCAR-4
# M19-MEL = system: M19-MEL
# OVCAR-3 = system: OVCAR-3
# A549 = system: A549
# DMS-273 = system: DMS-273
# SN12C = system: SN12C
# NCI-H460 = system: NCI-H460
# SK-MEL-28 = system: SK-MEL-28
# SF-295 = system: SF-295
# LOX IMVI = system: LOX IMVI
# HCC 2998 = system: HCC 2998
# NCI-H522 = system: NCI-H522
# HCT-116 = system: HCT-116
# UO-31 = system: UO-31
# SK-MEL-5 = system: SK-MEL-5
# DLD-1 = system: DLD-1
# SNB-19 = system: SNB-19
# IGROV-1 = system: IGROV-1
# KM-20L2 = system: KM-20L2
# HCT-15 = system: HCT-15
# SW-620 = system: SW-620
# HOP-92 = system: HOP-92
# 786-0 = system: 786-0
# U-251 = system: U-251
# HOP-62 = system: HOP-62
# TK-10 = system: TK-10
# SF-268 = system: SF-268
# UACC-257 = system: UACC-257
# SF-539 = system: SF-539
# HT-29 = system: HT-29
# ACHN = system: ACHN
# UACC-62 = system: UACC-62
# M14 = system: M14
# LXFL 529 = system: LXFL 529
# SK-MEL-2 = system: SK-MEL-2
# NCI-H23 = system: NCI-H23
# KM12 = system: KM12
# EKVX = system: EKVX
# CAKI-1 = system: CAKI-1
# A498 = system: A498
# T47D = system: T47D
# NCI-H226 = system: NCI-H226
# MOLT-4 = system: MOLT-4
# MDA-MB-231 = system: MDA-MB-231
# RXF 393 = system: RXF 393
# HL-60 = system: HL-60
# Hs-578T = system: Hs-578T
# SR = system: SR
# PC-3 = system: PC-3
# MDA-MB-435 = system: MDA-MB-435
# DU-145 = system: DU-145
# BT-549 = system: BT-549
# SK-OV-3 = system: SK-OV-3
# RPMI-8226 = system: RPMI-8226
# NCI/ADR-RES = system: NCI/ADR-RES
# COLO 205 = system: COLO 205
# SNB-75 = system: SNB-75
# MDA-N = system: MDA-N
# OVCAR-5 = system: OVCAR-5
# K562 = system: K562
# Malme-3M = system: Malme-3M
# MCF7 = system: MCF7
# CCRF-CEM = system: CCRF-CEM
structure (smiles),measurement,setting,value
CCN(CC)C(=O)c1ccc(C)c(/N=N/N(C)C)c1,GI50,OVCAR-8,> 100 µM (inactive)
same,GI50,OVCAR-4,> 100 µM (inactive)
same,GI50,M19-MEL,> 100 µM (inactive)
same,GI50,OVCAR-3,> 100 µM (inactive)
same,GI50,A549,> 100 µM (inactive)
same,GI50,DMS-273,> 100 µM (inactive)
same,GI50,SN12C,> 100 µM (inactive)
same,GI50,NCI-H460,> 100 µM (inactive)
same,GI50,SK-MEL-28,> 100 µM (inactive)
same,GI50,SF-295,> 100 µM (inactive)
same,GI50,LOX IMVI,> 100 µM (inactive)
same,GI50,HCC 2998,> 100 µM (inactive)
same,GI50,NCI-H522,44 µM (inactive)
same,GI50,HCT-116,> 100 µM (inactive)
same,GI50,UO-31,> 100 µM (inactive)
same,GI50,SK-MEL-5,> 100 µM (inactive)
same,GI50,DLD-1,> 100 µM (inactive)
same,GI50,SNB-19,> 100 µM (inactive)
same,GI50,IGROV-1,> 100 µM (inactive)
same,GI50,KM-20L2,> 10 µM (inactive)
same,GI50,HCT-15,> 100 µM
same,GI50,SW-620,> 100 µM (inactive)
same,GI50,HOP-92,> 100 µM (inactive)
same,GI50,786-0,> 100 µM (inactive)
same,GI50,U-251,> 100 µM (inactive)
same,GI50,HOP-62,> 100 µM (inactive)
same,GI50,TK-10,> 100 µM (inactive)
same,GI50,SF-268,> 100 µM (inactive)
same,GI50,UACC-257,> 100 µM (inactive)
same,GI50,SF-539,> 100 µM (inactive)
same,GI50,HT-29,> 100 µM (inactive)
same,GI50,ACHN,> 100 µM (inactive)
same,GI50,UACC-62,> 100 µM (inactive)
same,GI50,M14,> 100 µM (inactive)
same,GI50,LXFL 529,> 100 µM (inactive)
same,GI50,SK-MEL-2,> 100 µM (inactive)
same,GI50,NCI-H23,> 100 µM (inactive)
same,GI50,KM12,> 100 µM (inactive)
same,GI50,EKVX,> 100 µM (inactive)
same,GI50,CAKI-1,> 100 µM (inactive)
CN(CCN(C)CCN(C)C(=O)Cc1ccc(Cl)c(Cl)c1)CCN1CCCC1,GI50,OVCAR-8,34.9 µM (inactive)
same,GI50,OVCAR-4,77.6 µM (inactive)
same,GI50,OVCAR-3,63.5 µM (inactive)
same,GI50,A549,37 µM (inactive)
same,GI50,SN12C,39 µM (inactive)
same,GI50,NCI-H460,26.9 µM (inactive)
same,GI50,SK-MEL-28,1.94 µM (inactive)
same,GI50,SF-295,19.6 µM (inactive)
same,GI50,LOX IMVI,16.6 µM (inactive)
same,GI50,HCC 2998,11.7 µM (inactive)
same,GI50,NCI-H522,20.6 µM (inactive)
same,GI50,HCT-116,25 µM (inactive)
same,GI50,A498,16.4 µM (inactive)
same,GI50,T47D,24.6 µM (inactive)
same,GI50,NCI-H226,30.5 µM (inactive)
same,GI50,UO-31,1.92 µM (inactive)
same,GI50,SK-MEL-5,15.2 µM (inactive)
same,GI50,MOLT-4,10.6 µM (inactive)
same,GI50,SNB-19,39 µM (inactive)
same,GI50,MDA-MB-231,17.7 µM (inactive)
same,GI50,RXF 393,16.2 µM (inactive)
same,GI50,HL-60,18.2 µM (inactive)
same,GI50,IGROV-1,31.1 µM (inactive)
same,GI50,HCT-15,37.3 µM
same,GI50,SW-620,20.3 µM (inactive)
same,GI50,Hs-578T,28.5 µM (inactive)
same,GI50,HOP-92,5.71 µM (inactive)
same,GI50,786-0,19.5 µM (inactive)
same,GI50,SR,16.5 µM (inactive)
same,GI50,U-251,19 µM (inactive)
same,GI50,PC-3,34.7 µM (inactive)
same,GI50,HOP-62,25.4 µM (inactive)
same,GI50,TK-10,26.1 µM (inactive)
same,GI50,SF-268,41.2 µM (inactive)
same,GI50,MDA-MB-435,5.68 µM (inactive)
same,GI50,DU-145,57.3 µM (inactive)
same,GI50,UACC-257,5.11 µM (inactive)
same,GI50,SF-539,21.8 µM (inactive)
same,GI50,BT-549,25.7 µM (inactive)
same,GI50,HT-29,7.36 µM (inactive)
same,GI50,ACHN,45.9 µM (inactive)
same,GI50,SK-OV-3,46.8 µM (inactive)
same,GI50,UACC-62,4.52 µM (inactive)
same,GI50,RPMI-8226,5.5 µM (inactive)
same,GI50,NCI/ADR-RES,> 100 µM (inactive)
same,GI50,M14,25.9 µM (inactive)
same,GI50,COLO 205,16.3 µM (inactive)
same,GI50,SNB-75,28 µM (inactive)
same,GI50,SK-MEL-2,16 µM (inactive)
same,GI50,MDA-N,6.85 µM (inactive)
same,GI50,NCI-H23,30.5 µM (inactive)
same,GI50,OVCAR-5,37.5 µM (inactive)
same,GI50,KM12,35 µM (inactive)
same,GI50,K562,3.24 µM (inactive)
same,GI50,Malme-3M,20.5 µM (inactive)
same,GI50,MCF7,24.2 µM (inactive)
same,GI50,CCRF-CEM,11.6 µM (inactive)
same,GI50,EKVX,45.4 µM (inactive)
same,GI50,CAKI-1,35.2 µM (inactive)
